Test results from US12275731B2, “Azaindole inhibitors of wild-type and mutant forms of LRRK2” (DANA-FARBER CANCER INSTITUTE, INC., priority 2018, dated 2025).

Columns and labels:
Test in all cases: KinomeScan profiling
Assay type in all cases: binding
PFCDPK1(P. falciparum) = PFCDPK1(P. falciparum) (Plasmodium falciparum, UniProt P62344); details: read-out: % control
Method in brief: (§1)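 Test agents were profiled at a single concentration of 1 μM (DMSO vehicle) on a near-complete set of 468 kinases. Signal is reported relative to vehicle (100%) and a fully displacing control (0%).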

EGFR(L747-T751del, Sins) = EGFR(L747-T751del, Sins) (Homo sapiens, UniProt P00533, DEL747-750/T751S); details: read-out: % control
Method in brief: as §1

TESK1 = TESK1 (Homo sapiens, UniProt Q15569); details: TESK1, 1 μM; read-out: % control
Method in brief: as §1

BMPR1A = target: T1, BMPR1A (Homo sapiens, UniProt P36894); details: read-out: % control
T1 construct: purchased KinomeScan®
Method in brief: as §1

CSNK1A1L = target: T2, CSNK1A1L (Homo sapiens, UniProt Q8N752); details: read-out: % control
T2 sequence (Q8N752 1-337): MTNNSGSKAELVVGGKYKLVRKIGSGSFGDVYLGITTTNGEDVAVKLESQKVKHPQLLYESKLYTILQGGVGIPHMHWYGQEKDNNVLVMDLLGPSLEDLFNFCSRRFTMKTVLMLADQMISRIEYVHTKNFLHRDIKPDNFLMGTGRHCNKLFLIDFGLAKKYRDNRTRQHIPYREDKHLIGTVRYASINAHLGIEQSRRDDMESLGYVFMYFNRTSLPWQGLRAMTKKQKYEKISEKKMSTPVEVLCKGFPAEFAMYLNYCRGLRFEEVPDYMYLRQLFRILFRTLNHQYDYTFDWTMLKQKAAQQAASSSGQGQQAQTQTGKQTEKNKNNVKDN
Method in brief: as §1

ROS1 = ROS1 (Homo sapiens, UniProt P08922); details: ROS1, 1 μM; read-out: % control
Method in brief: as §1

SGK3 = target: T3, SGK3 (Homo sapiens, UniProt Q96BR1); details: SGK3, 1 μM; read-out: % control
T3 construct: purchased KinomeScan® (panel service)
T3 sequence (Q96BR1 1-496): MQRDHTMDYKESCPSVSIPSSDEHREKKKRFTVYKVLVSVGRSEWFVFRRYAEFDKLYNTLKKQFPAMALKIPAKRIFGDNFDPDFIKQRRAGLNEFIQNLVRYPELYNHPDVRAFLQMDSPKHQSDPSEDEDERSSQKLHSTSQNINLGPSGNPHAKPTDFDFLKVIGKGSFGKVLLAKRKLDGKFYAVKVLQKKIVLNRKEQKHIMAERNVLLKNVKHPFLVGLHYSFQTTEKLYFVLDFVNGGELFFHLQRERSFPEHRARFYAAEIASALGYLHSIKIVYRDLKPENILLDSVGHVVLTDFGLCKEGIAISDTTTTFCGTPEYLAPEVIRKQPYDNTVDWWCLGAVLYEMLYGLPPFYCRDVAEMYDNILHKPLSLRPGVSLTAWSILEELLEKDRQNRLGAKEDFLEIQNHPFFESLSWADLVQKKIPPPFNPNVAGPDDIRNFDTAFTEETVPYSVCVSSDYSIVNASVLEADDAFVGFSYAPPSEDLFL
Method in brief: as §1

PIM1 = target: T4, PIM1 (Homo sapiens, UniProt P11309); details: PIM1, 1 μM; read-out: % control
T4 construct: purchased KinomeScan® (panel service)
Method in brief: as §1

AURKB = target: T5, AURKB (Homo sapiens, UniProt Q96GD4); details: read-out: % control
T5 construct: purchased KinomeScan®
Method in brief: as §1

PCTK3 = PCTK3 (Homo sapiens, UniProt Q07002); details: PCTK3, 1 μM; read-out: % control
Method in brief: as §1

[1] = target: T6, JAK1(JH2domain-pseudokinase) (Homo sapiens, UniProt P23458); details: read-out: % control
T6 construct: JAK1(JH2domain-pseudokinase); purchased KinomeScan®
Method in brief: as §1

MYO3A = MYO3A (Homo sapiens, UniProt Q8NEV4); details: read-out: % control
Method in brief: as §1

IGF1R = IGF1R (Homo sapiens, UniProt P08069); details: read-out: % control
Method in brief: as §1

TIE1 = TIE1 (Homo sapiens, UniProt P35590); details: TIE1, 1 μM; read-out: % control
Method in brief: as §1

PLK3 = PLK3 (Homo sapiens, UniProt Q9H4B4); details: PLK3, 1 μM; read-out: % control
Method in brief: as §1

YANK3 = YANK3 (Homo sapiens, UniProt Q86UX6); details: YANK3, 1 μM; read-out: % control
Method in brief: as §1

PFTAIRE2 = PFTAIRE2 (Homo sapiens, UniProt Q96Q40); details: PFTAIRE2, 1 μM; read-out: % control
Method in brief: as §1

NEK2 = target: T7, NEK2 (Homo sapiens, UniProt P51955); details: NEK2, 1 μM; read-out: % control
T7 sequence (P51955 1-445): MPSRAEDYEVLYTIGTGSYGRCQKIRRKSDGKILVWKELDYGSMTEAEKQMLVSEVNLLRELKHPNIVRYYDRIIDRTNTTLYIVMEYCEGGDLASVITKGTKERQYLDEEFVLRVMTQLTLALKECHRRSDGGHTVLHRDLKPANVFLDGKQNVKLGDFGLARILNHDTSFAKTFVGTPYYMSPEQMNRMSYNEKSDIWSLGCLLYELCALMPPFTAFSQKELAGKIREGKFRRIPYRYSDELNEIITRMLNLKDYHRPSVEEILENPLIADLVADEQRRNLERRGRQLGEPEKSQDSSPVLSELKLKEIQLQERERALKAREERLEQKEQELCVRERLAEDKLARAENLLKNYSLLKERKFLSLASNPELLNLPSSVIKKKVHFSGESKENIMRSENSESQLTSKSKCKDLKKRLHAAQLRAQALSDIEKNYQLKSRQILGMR
Method in brief: as §1

TRKB = TRKB (Homo sapiens, UniProt Q16620); details: read-out: % control
Method in brief: as §1

Chain of IGF1R (P08069 31-1367): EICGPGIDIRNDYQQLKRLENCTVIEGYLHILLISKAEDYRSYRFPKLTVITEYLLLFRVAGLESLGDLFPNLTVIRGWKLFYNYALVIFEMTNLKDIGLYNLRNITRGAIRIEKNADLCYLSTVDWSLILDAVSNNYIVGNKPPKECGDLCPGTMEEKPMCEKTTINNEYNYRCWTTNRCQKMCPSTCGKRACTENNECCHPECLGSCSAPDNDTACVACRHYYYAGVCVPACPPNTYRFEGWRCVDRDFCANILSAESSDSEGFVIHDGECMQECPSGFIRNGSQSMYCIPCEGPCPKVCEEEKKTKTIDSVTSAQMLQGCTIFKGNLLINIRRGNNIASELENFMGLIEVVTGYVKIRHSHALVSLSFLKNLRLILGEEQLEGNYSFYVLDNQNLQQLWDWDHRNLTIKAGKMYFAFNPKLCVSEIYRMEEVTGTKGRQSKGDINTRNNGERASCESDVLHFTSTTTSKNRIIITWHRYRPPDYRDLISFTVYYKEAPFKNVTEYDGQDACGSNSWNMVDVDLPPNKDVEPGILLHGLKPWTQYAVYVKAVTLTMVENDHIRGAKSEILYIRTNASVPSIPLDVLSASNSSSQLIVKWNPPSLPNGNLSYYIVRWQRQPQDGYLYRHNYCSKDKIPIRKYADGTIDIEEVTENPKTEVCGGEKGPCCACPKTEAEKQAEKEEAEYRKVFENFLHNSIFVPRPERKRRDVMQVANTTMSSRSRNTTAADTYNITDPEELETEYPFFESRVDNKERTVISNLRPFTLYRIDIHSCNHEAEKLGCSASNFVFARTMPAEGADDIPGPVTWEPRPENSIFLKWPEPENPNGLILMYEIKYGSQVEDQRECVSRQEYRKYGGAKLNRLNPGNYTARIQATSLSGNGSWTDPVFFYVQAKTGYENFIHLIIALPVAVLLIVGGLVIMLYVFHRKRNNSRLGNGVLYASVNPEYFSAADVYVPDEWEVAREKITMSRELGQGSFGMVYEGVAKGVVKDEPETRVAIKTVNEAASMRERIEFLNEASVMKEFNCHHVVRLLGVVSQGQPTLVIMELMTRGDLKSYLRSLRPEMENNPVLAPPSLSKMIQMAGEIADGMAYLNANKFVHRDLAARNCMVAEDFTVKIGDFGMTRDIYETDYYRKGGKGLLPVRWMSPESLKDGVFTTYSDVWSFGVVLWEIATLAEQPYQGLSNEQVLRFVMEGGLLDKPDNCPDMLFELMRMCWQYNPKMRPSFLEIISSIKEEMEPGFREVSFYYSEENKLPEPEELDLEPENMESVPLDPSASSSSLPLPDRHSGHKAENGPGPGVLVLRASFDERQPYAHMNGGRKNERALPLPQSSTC
T6 sequence (P23458 583-855 limits assumed): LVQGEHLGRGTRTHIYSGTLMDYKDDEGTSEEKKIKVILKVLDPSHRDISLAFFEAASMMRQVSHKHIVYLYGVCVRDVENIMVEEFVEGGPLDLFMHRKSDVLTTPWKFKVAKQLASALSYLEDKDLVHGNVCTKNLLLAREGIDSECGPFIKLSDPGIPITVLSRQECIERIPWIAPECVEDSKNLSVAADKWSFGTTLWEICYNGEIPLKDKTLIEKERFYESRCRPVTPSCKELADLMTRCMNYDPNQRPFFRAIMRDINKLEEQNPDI
Chain of MYO3A (Q8NEV4 whole entry): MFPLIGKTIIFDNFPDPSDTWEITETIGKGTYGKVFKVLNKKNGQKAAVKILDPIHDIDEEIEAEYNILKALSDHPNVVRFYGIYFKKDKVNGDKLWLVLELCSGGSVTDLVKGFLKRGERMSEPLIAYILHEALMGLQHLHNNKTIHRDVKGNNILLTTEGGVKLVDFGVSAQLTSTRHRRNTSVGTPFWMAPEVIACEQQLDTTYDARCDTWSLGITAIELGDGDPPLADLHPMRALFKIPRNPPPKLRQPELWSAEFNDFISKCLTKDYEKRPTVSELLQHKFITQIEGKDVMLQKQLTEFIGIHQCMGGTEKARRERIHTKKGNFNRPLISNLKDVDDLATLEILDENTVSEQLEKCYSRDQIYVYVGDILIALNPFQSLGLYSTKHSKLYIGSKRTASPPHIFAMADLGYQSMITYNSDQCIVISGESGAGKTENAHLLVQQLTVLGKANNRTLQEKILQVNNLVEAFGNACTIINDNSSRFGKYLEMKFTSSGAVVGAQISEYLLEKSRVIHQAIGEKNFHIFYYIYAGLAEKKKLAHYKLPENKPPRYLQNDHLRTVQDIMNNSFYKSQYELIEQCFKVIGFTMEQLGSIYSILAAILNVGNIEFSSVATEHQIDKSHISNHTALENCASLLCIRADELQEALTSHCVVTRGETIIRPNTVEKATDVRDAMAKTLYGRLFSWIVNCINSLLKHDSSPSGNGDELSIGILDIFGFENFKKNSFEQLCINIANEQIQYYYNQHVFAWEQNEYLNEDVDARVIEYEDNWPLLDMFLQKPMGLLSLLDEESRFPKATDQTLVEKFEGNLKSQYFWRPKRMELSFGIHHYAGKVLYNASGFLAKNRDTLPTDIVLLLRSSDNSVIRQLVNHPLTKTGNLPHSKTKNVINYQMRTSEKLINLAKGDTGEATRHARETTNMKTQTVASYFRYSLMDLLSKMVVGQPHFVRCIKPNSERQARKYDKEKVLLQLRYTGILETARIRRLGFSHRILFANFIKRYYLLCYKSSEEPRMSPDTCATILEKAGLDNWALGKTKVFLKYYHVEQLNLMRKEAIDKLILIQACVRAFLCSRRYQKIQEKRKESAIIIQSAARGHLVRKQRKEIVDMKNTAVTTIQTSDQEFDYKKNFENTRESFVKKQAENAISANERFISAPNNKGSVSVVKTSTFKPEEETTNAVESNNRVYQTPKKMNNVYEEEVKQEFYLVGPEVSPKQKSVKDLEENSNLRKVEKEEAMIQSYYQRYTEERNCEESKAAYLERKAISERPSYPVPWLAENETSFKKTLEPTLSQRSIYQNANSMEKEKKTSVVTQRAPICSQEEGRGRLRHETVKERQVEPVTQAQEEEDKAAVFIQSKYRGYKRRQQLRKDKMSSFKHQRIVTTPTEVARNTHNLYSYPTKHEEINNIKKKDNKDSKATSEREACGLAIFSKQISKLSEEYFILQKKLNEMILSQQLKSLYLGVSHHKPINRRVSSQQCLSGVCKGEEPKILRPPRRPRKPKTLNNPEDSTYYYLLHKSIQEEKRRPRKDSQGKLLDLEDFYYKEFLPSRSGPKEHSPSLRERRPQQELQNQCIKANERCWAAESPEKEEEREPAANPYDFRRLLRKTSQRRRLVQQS
T4 sequence (P11309 whole entry): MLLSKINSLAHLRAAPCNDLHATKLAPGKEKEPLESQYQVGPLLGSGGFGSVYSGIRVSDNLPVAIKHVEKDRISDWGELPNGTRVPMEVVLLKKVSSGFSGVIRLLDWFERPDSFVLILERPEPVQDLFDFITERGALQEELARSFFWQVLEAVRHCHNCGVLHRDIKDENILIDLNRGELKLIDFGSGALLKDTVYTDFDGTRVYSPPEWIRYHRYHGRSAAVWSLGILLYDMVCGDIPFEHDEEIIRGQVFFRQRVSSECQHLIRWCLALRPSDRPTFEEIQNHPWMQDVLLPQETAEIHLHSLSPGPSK
Chain of EGFR(L747-T751del, Sins) (P00533 with tags, fused parts or gaps DEL747-750/T751S limits assumed): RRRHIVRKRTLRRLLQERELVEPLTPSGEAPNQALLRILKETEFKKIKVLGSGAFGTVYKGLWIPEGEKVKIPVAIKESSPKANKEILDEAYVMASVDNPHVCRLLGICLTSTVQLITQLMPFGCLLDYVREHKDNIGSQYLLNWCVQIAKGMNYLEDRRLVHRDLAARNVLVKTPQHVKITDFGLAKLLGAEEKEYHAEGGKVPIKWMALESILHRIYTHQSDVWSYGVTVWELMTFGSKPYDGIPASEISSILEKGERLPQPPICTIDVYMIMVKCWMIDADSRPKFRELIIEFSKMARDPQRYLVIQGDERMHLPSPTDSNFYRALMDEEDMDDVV
Chain of PFTAIRE2 (Q96Q40 whole entry): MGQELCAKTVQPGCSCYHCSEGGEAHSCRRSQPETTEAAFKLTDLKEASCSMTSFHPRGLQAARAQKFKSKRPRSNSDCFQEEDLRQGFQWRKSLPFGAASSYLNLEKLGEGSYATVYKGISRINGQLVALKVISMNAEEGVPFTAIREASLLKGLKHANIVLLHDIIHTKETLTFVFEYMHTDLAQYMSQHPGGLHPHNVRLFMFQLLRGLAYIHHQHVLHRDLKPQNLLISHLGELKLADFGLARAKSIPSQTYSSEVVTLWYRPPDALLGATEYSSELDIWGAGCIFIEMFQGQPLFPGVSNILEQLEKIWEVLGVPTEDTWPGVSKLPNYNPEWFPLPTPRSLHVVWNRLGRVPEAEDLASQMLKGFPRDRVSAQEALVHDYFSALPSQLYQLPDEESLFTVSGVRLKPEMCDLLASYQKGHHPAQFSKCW
T5 sequence (Q96GD4 whole entry): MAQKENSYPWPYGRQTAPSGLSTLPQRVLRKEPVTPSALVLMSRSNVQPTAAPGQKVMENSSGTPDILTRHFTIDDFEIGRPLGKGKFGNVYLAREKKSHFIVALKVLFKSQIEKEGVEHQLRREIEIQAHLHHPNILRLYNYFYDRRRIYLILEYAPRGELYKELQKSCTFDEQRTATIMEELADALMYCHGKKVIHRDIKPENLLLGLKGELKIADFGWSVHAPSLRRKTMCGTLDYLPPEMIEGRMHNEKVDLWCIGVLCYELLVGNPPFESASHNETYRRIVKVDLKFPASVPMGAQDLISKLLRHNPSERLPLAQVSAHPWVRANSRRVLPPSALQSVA

`CNc1c(-c2cnn([C@H]3CCN(C(C)=O)C[C@@H]3F)c2)cnc2[nH]cc(Cl)c12` [Compound 77, 1-((3S,4S)-4-(4-(3-chloro-4-(methylamino)-1H-pyrrolo[2,3-b]pyridin-5-yl)-1H-pyrazol-1-yl)-3-fluoropiperidin-1-yl)ethan-1-one] gave a remaining binding at 1 µM (PFCDPK1(P. falciparum)) of 86%, a remaining binding at 1 µM (EGFR(L747-T751del, Sins)) of 88% and a remaining binding at 1 µM (TESK1) of 89%. For the same molecule, the remaining binding at 1 µM (BMPR1A) was 93%, the remaining binding at 1 µM (CSNK1A1L) was 79% and the remaining binding at 1 µM (ROS1) was 74%. It also gave a remaining binding at 1 µM (SGK3) of 37%, a remaining binding at 1 µM (PIM1) of 95% and a remaining binding at 1 µM (AURKB) of 24%. For the same molecule, the remaining binding at 1 µM (PCTK3) was 100%, the remaining binding at 1 µM [1] was 57% and the remaining binding at 1 µM (MYO3A) was 69%. It also gave a remaining binding at 1 µM (IGF1R) of 91%, a remaining binding at 1 µM (TIE1) of 97% and a remaining binding at 1 µM (PLK3) of 78%. The remaining binding at 1 µM (YANK3) was 97%, the remaining binding at 1 µM (PFTAIRE2) was 100% and the remaining binding at 1 µM (NEK2) was 100%. The remaining binding at 1 µM (TRKB) was 23%.
Work on `O=C(c1ccc(-c2cnc3[nH]cc(Cl)c3c2NC2CCCC2)cc1)N1CCC(N2CCOCC2)CC1` [Compound 101, (4-(3-chloro-4-(cyclopentylamino)-1H-pyrrolo[2,3-b]pyridin-5-yl)phenyl)(4-morpholinopiperidin-1-yl)methanone] yielded a remaining binding at 1 µM (PFCDPK1(P. falciparum)) of 95%, a remaining binding at 1 µM (EGFR(L747-T751del, Sins)) of 100% and a remaining binding at 1 µM (TESK1) of 99%. For the same molecule, the remaining binding at 1 µM (BMPR1A) was 87%, the remaining binding at 1 µM (CSNK1A1L) was 100% and the remaining binding at 1 µM (ROS1) was 73%. It also gave a remaining binding at 1 µM (SGK3) of 96%, a remaining binding at 1 µM (PIM1) of 95% and a remaining binding at 1 µM (AURKB) of 100%. For the same molecule, the remaining binding at 1 µM (PCTK3) was 96%, the remaining binding at 1 µM [1] was 47% and the remaining binding at 1 µM (MYO3A) was 100%. It also gave a remaining binding at 1 µM (IGF1R) of 86%, a remaining binding at 1 µM (TIE1) of 92% and a remaining binding at 1 µM (PLK3) of 84%. It also gave a remaining binding at 1 µM (YANK3) of 57%, a remaining binding at 1 µM (PFTAIRE2) of 91% and a remaining binding at 1 µM (NEK2) of 100%. It also gave a remaining binding at 1 µM (TRKB) of 100%.
Work on `CNc1c(-c2ccc(C(=O)N3CCC(N4CCOCC4)CC3)cc2)cnc2[nH]cc(Cl)c12` [Compound 96, (4-(3-chloro-4-(methylamino)-1H-pyrrolo[2,3-b]pyridin-5-yl)phenyl)(4-morpholinopiperidin-1-yl)methanone] yielded a remaining binding at 1 µM (PFCDPK1(P. falciparum)) of 94%, a remaining binding at 1 µM (EGFR(L747-T751del, Sins)) of 76% and a remaining binding at 1 µM (TESK1) of 74%. It also gave a remaining binding at 1 µM (BMPR1A) of 66%, a remaining binding at 1 µM (CSNK1A1L) of 48% and a remaining binding at 1 µM (ROS1) of 89%. The remaining binding at 1 µM (SGK3) was 48%, the remaining binding at 1 µM (PIM1) was 100% and the remaining binding at 1 µM (AURKB) was 53%. The remaining binding at 1 µM (PCTK3) was 100%, the remaining binding at 1 µM [1] was 94% and the remaining binding at 1 µM (MYO3A) was 64%. It also gave a remaining binding at 1 µM (IGF1R) of 100%, a remaining binding at 1 µM (TIE1) of 93% and a remaining binding at 1 µM (PLK3) of 99%. It also gave a remaining binding at 1 µM (YANK3) of 99%, a remaining binding at 1 µM (PFTAIRE2) of 100% and a remaining binding at 1 µM (NEK2) of 100%. It also gave a remaining binding at 1 µM (TRKB) of 48%.
